The values that follow come from patent publication US20230148152A1, “METHOD OF SYNTHESIZING SINGLE-STRANDED NUCLEOTIDE SEQUENCE, BLOCKED NUCLEOSIDE TRIPHOSPHATES AND RELATED METHODS” (Agency for Science, Technology and Research, priority 2019, published 2023).

What all share (assay type): biochemical
The test system of experiment [1] is template-independent terminal deoxynucleotidyl transferase (TdT) enzyme. Put plainly: Single base addition to single-stranded nucleotide sequence catalysed by TdT (overall conclusion). The following applies: for termination of further base incorporation: summary of tailing experiments; for incorporation in single stranded oligonucleotide via the catalysis of TdT: summary, recombinant or engineered TdT. The source says: A series of screening experiments were designed and conducted to test the recognition of the reversible terminators nucleoside triphosphate reversible terminators designed in accordance with various embodiments disclosed herein by template-independent polymerase and the efficiency of the incorporation of such reversible terminators into the nucleic acid chain. In these experiments, the template-independent polymerase used is recombinant or engineered template-independent terminal deoxynucleotidyl transferase (TdT) enzyme and the initiator used is a single-stranded oligonucleotide sequence.

For experiment [2], the system named is engineered terminal deoxynucleotidyl transferase (TdT). Put plainly: Tailing experiment design, screening of RT-dTTPs with eTdT as enzyme. The conditions noted are these: for incorporation into the original FAM-20-mer (21-mer product): eTdT as enzyme, PAGE, FIG. 8A and FIG. 8B; for incorporation yield, eTdT compared with rTdT: catalytic activity of rTdT compared with eTdT, FIG. 10. The source says:
(§1) In this experimental design (FIG. 5), single-stranded deoxyoligonucleotides (20 nt) 102 with FAM tagged on 5′ end reacts with RT-dNTP 104 using TdT as the catalyst, and produce 21-mer (102a and 102b).
(§2) As the incorporation is not 100%, the unreacted FAM tagged oligo will further react with natural deoxynucleotidyl triphosphates (dATP) 106, and produces tailing products 102c. The 21-mer (102a and 102b) and tailing products (102c) can be separated by polyacrylamide gel electrophoresis.
(§3) 1. Set up the following reactions
(§4) 2. Incubate the solution at 37° C. for 60 min
(§5) 3. Purification • Desalt with Zymo column Oligo Clean & Concentrator D4061 (following manufacturer's protocol) to obtain 15 μL aqueous solution and concentrate on speedvac to dry
(§6) 4. Set up the following reactions
(§7) 5. Incubate at 37° C. for 60 min
(§8) 6. Stop the reaction by heating at 70° C. for 10 min
(§9) 7. Purification • Desalt with Zymo column Oligo Clean & Concentrator D4061 (following manufacturer's protocol) to obtain 15 μL aqueous solution and concentrate on speedvac to dry
(§10) 8. Denaturing PAGE (20% urea PAGE, 200V for 90 min) • Preheat 1×TBE buffer at 65° C. • Set up gel in gel tank, flush wells, pre-run 20% urea polyacrylamide gel at 200V for 30 min • Prepare loading sample (dry sample+2.5 μL 1×TBE, 0.5 μL loading buffer), preheat sample at 95° C. for 10 min • Flush each well 3 times to remove urea in wells, load sample, and run for 90 min • Image under UV light without post staining. If post staining is needed, SYBR Gold is used.
(§11) In evaluating the RT-dTTP(s)'s incorporation and termination activities using tailing experiment design, two types of TdTs are used for the evaluation studies: recombinant TdT (rTdT) purchased from Promega and engineered TdT (eTdT).

Experiment [3] has as its target T1, recombinant terminal deoxynucleotidyl transferase (TdT) (Bos taurus, UniProt P06526).
T1 construct: purchased Promega
Put plainly: Tailing experiment design, screening of RT-dTTPs with rTdT as enzyme. The conditions noted are these: 37° C. for 60 min, PAGE, FIG. 6A, FIG. 7.
Text: as §1, §2, §3, §4, §5, §6, §7, §8, §9, §10, §11

Experiment [4] has as its system terminal deoxynucleotidyl transferase (TdT). Put plainly: Evaluation of reversibility of reversible terminators (incorporation, capping, deprotection, elongation). The following applies: elongation by TdT after deprotection of CE or DT.
Text: Once RT-dTTP is incorporated to the single-stranded oligonucleotide, the reversible terminator needs to be removed to enable the next base incorporation. […] The reaction will produce a mixture of products which includes the reversibly terminated 21-mer (202a and 202b) and unreacted original 20-mer 202. Then azido-ddGTP 206 will be added to 3′-termini of the unreacted 20-mer 202. As 3′ termini become a dideoxynucleotide 202c, the azido oligonucleotide will not be able to further react with any dTTP via TdT. Then reversibly terminator will be removed in certain conditions, and further incorporated with natural dTTP 208 via TdT.
1. Set Up the Following Reactions
as §4
3. Purification • Desalt with Zymo column Oligo Clean & Concentrator D4061 (following protocol) to obtain 15 μL aqueous solution and concentrate on speedvac to dry
4. Add 85 μL of 30% NH4OH and heat at 80° C. for 1 h
5. Purification • Desalt with Zymo column Oligo Clean & Concentrator D4061 (following protocol) to obtain 15 μL aqueous solution and concentrate on speedvac to dry Elongation of Nucleotide with Natural dATP:
6. Set up the following reactions
7. Incubate at 37° C. for 60 min
8. Stop the reaction by heating at 70° C. for 10 min
9. Purification • Desalt with Zymo column Oligo Clean & Concentrator D4061 (following protocol) to obtain 15 μL aqueous solution and concentrate on speedvac to dry […]

Experiment [5] has as its target T2, rTdT (Bos taurus, UniProt P06526).
T2 construct: purchased Promega
The experiment in a line: Laddering experiment design (dATP / RT-dTTP ratios). The conditions noted are these: laddering experiments, FIG. 11; compared with Az-dTTP. The method, then: The laddering experiment design is to differentiate the ratio between natural dNTP and RT-dNTP.
as §3
2. Incubate at 37° C. for 60 min
3. Stop the reaction by heating at 70° C. for 10 min
4. Purification • Desalt with Zymo column Oligo Clean & Concentrator D4061 (following manufacturer's protocol) to obtain 15 μL aqueous solution and concentrate on speedvac to dry
5. Denaturing PAGE (20% urea PAGE, 200V for 90 min) • Preheat 1×TBE buffer at 65° C. • Set up gel in gel tank, flush wells, pre-run 20% urea polyacrylamide gel at 200V for 30 min • Prepare loading sample (dry sample+2.5 μL 1×TBE, 0.5 μL loading buffer), preheat sample at 95° C. for 10 min • Flush each well 3 times to remove urea in wells, load sample, and run for 90 min • Image under UV light without post staining. If post staining is needed, SYBR Gold is used.

T1 sequence (P06526 whole entry): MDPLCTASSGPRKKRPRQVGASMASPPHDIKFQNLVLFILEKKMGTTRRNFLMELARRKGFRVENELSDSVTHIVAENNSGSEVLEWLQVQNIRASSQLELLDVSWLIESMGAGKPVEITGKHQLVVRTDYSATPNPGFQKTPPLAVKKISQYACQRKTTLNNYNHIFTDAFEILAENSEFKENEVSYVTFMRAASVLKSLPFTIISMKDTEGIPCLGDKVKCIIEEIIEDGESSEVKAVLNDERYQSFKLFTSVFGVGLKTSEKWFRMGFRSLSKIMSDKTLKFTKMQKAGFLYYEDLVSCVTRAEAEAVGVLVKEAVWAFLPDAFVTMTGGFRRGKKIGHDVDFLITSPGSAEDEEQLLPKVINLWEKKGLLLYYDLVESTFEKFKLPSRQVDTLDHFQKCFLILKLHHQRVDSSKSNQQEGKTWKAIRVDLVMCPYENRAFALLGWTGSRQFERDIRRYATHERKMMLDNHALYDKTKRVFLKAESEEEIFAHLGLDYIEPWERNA
T2 sequence (P06526 whole entry): as above

Consider “dithianemethyl acetal (DMA)-dTTP [DMA-dTTP]”, for which, in experiment [1], the “termination of further base incorporation” value is “terminate further base incorporation” and the “incorporation in single stranded oligonucleotide via the catalysis of TdT” value (shortened to “incorporation … of TdT”) is “successfully incorporated”. Moreover, the “incorporation into the original FAM-20-mer (21-mer product)” value in experiment [2] is “gave 21-mer products”. In addition, the “incorporation into the original FAM-20-mer (21-mer product)” value in experiment [3] is on record as “gave 21-mer products”.

In the case of `Cc1cn([C@H]2C[C@H](OCOCc3ccc([N+](=O)[O-])cc3)[C@@H](COP(=O)(O)OP(=O)(O)OP(=O)(O)O)O2)c(=O)[nH]c1=O` [PNBA-dTTP, 4-nitrobenzyloxy-methyl (PNBA)-dTTP], in experiment [1], the “termination of further base incorporation” value is recorded as “terminate further base incorporation” and the “incorporation … of TdT” value is recorded as “successfully incorporated”. Also, in experiment [2], the “incorporation into the original FAM-20-mer (21-mer product)” value is “gave 21-mer products”. Besides, in experiment [3], the “incorporation into the original FAM-20-mer (21-mer product)” value is recorded as “gave 21-mer products”.

In the case of `Cc1cn(C2CC(OCN=[N+]=[N-])C(COP(=O)(O)OP(=O)(O)OP(=O)(O)O)O2)c(=O)[nH]c1=O` (stereo not shown) [Az-dTTP, reference compound], the “incorporation yield, eTdT compared with rTdT” value in experiment [2] was “much high incorporation yield than rTdT”.

In the case of `Cc1cn([C@H]2C[C@H](OCCC#N)[C@@H](COP(=O)(O)OP(=O)(O)OP(=O)(O)O)O2)c(=O)[nH]c1=O` [CE-dTTP, 2-cyanoethyl ether (CE)-dTTP], the “incorporation yield, eTdT compared with rTdT” value in experiment [2] is on record as “much high incorporation yield than rTdT”. Moreover, the “further incorporation of natural nucleotide after deprotection” value in experiment [4] is recorded as “able to incorporate with natural dTTP”. For the same molecule, in experiment [5], the “termination of the reaction” value is on record as “can terminate the reaction as well as Az-dTTP”.

On to `Cc1cn([C@H]2C[C@H](OC(=O)OCCSSC(C)(C)C)[C@@H](COP(=O)(O)OP(=O)(O)OP(=O)(O)O)O2)c(=O)[nH]c1=O` [DT-dTTP, disulfide carbonate (DT)-dTTP], for which, in experiment [1], the “termination of further base incorporation” value was “terminate further base incorporation” and the “incorporation … of TdT” value is on record as “successfully incorporated”. The “incorporation into the original FAM-20-mer (21-mer product)” value in experiment [2] is “gave 21-mer products”. For the same molecule, the “further incorporation of natural nucleotide after deprotection” value in experiment [4] is “able to incorporate with natural dTTP”. Further, the “incorporation into the original FAM-20-mer (21-mer product)” value in experiment [3] is reported as “particularly good yield of 21-mer”. Further, the “termination of the reaction” value in experiment [5] was “can terminate the reaction as well as Az-dTTP”.

For `C=CCOCO[C@H]1C[C@H](n2cc(C)c(=O)[nH]c2=O)O[C@@H]1COP(=O)(O)OP(=O)(O)OP(=O)(O)O` [AL-dTTP, (allyloxy)methyl (ALM)-dTTP], in experiment [1], the “termination of further base incorporation” value is “terminate further base incorporation” and the “incorporation … of TdT” value is on record as “successfully incorporated”. The “incorporation into the original FAM-20-mer (21-mer product)” value in experiment [2] was “gave 21-mer products”.

In the case of `Cc1cn([C@H]2C[C@H](OCOCC[Si](C)(C)C)[C@@H](COP(=O)(O)OP(=O)(O)OP(=O)(O)O)O2)c(=O)[nH]c1=O` [SEM-dTTP, 2-(trimethylsilyl)ethoxymethyl (SEM)-dTTP], the “termination of further base incorporation” value in experiment [1] was “terminate further base incorporation”. Moreover, in experiment [1], the “incorporation … of TdT” value is listed as “successfully incorporated”. Moreover, the “incorporation into the original FAM-20-mer (21-mer product)” value in experiment [2] and in experiment [3] was “gave 21-mer products” in each case.
